How the values were obtained:
Type in all cases: in vivo
[1] = test system: palmer amaranth (pigweed, palmer, Amaranthus palmeri); assay: Test A postemergence, palmer amaranth; conditions: 10 days
Text: (§1) Seeds of plant species selected from barnyardgrass (Echinochloa crus-galli), blackgrass (Alopecurus myosuroides), corn (Zea mays), foxtail, giant (giant foxtail, Setaria faberi), foxtail, green (green foxtail, Setaria viridis), goosegrass (Eleusine indica), kochia (Bassia scoparia), oat, wild (wild oat, Avena fatua), palmer amaranth (pigweed, palmer, Amaranthus palmeri), redroot pigweed (Amaranthus retroflexus), ragweed (common ragweed, Ambrosia artemisiifolia), ryegrass, Italian (Italian ryegrass, Lolium multiflorum), and soybean (Glycine max) were planted into a blend of loam soil and sand and treated preemergence with a directed soil spray using test chemicals formulated in a non-phytotoxic solvent mixture which included a surfactant.
(§2) At the same time, plants selected from these crop and weed species and also wheat (Triticum aestivum), galium (catchweed bedstraw, Galium aparine) and horseweed (Erigeron canadensis) were planted in pots containing the same blend of loam soil and sand and treated with postemergence applications of test chemicals formulated in the same manner. Plants ranged in height from 2 to 10 cm and were in the one- to two-leaf stage for the postemergence treatment. Treated plants and untreated controls were maintained in a greenhouse for 10 days, after which time all treated plants were compared to untreated controls and visually evaluated for injury. Plant response ratings, summarized in Table A, are based on a 0 to 100 scale where 0 is no effect and 100 is complete control. A dash (-) response means no test result.

[2] = test system: horseweed (Erigeron canadensis); assay: Test A postemergence, horseweed; conditions: 10 days
Text: as §1, §2

[3] = test system: corn (Zea mays); assay: Test A postemergence, corn; conditions: 10 days
Procedure, shortened: (§3)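 Pre: soil-directed spray on seeded loam/sand pots. Post: spray on 2–10 cm seedlings, 1–2 leaves. Surfactant-containing solvent vehicle. Greenhouse 10 d; visual % control vs untreated.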

[4] = test system: blackgrass (Alopecurus myosuroides); assay: Test A postemergence, blackgrass; conditions: 10 days
Procedure, shortened: as §3

[5] = test system: ducksalad (Heteranthera limosa); assay: Test B flooded paddy test, ducksalad; conditions: 250 g ai/ha, Flood; visually evaluated after 10 to 14 days
Procedure, shortened: (§4)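 Water-applied treatment of 2-leaf plants in pots kept flooded at 3 cm. Visual control rating (0–100) against untreated plants after 10–14 greenhouse days.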

[6] = test system: palmer amaranth (pigweed, palmer, Amaranthus palmeri); assay: Test A preemergence, palmer amaranth; conditions: 0 to 100 scale, 10 days
Text: as §1, §2

[7] = test system: goosegrass (Eleusine indica); assay: Test A preemergence, goosegrass; conditions: 0 to 100 scale, 10 days
Text: as §1, §2

[8] = test system: oat, wild (wild oat, Avena fatua); assay: Test A postemergence, oat, wild; conditions: 10 days
Text: as §1, §2

[9] = test system: foxtail, giant (giant foxtail, Setaria faberi); assay: Test A postemergence, foxtail, giant; conditions: 10 days
Procedure, shortened: as §3

[10] = test system: kochia (Bassia scoparia); assay: Test A preemergence, kochia; conditions: 0 to 100 scale, 10 days
Procedure, shortened: as §3

[11] = test system: ryegrass, Italian (Italian ryegrass, Lolium multiflorum); assay: Test A preemergence, ryegrass, Italian; conditions: 0 to 100 scale, 10 days
Procedure, shortened: as §3

[12] = test system: foxtail, giant (giant foxtail, Setaria faberi); assay: Test A preemergence, foxtail, giant; conditions: 0 to 100 scale, 10 days
Procedure, shortened: as §3

[13] = test system: galium (catchweed bedstraw, Galium aparine); assay: Test A postemergence, galium; conditions: 10 days
Procedure, shortened: as §3

[14] = test system: kochia (Bassia scoparia); assay: Test A postemergence, kochia; conditions: 10 days
Procedure, shortened: as §3

[15] = test system: ragweed (common ragweed, Ambrosia artemisiifolia); assay: Test A preemergence, ragweed; conditions: 0 to 100 scale, 10 days
Procedure, shortened: as §3

[16] = test system: goosegrass (Eleusine indica); assay: Test A postemergence, goosegrass; conditions: 10 days
Text: as §1, §2

[17] = test system: sedge, umbrella (small-flower umbrella sedge, Cyperus difformis); assay: Test B flooded paddy test, sedge, umbrella; conditions: 250 g ai/ha, Flood; visually evaluated after 10 to 14 days
Procedure, shortened: as §4

[18] = test system: soybean (Glycine max); assay: Test A preemergence, soybean; conditions: 0 to 100 scale, 10 days
Text: as §1, §2

[19] = test system: soybean (Glycine max); assay: Test A postemergence, soybean; conditions: 10 days
Text: as §1, §2

[20] = test system: wheat (Triticum aestivum); assay: Test A preemergence, wheat; conditions: 125 g ai/ha, 0 to 100 scale, 10 days
[21] = test system: wheat (Triticum aestivum); assay: Test A postemergence, wheat; conditions: 10 days
Procedure, shortened: as §3

[22] = test system: blackgrass (Alopecurus myosuroides); assay: Test A preemergence, blackgrass; conditions: 0 to 100 scale, 10 days
Text: as §1, §2

[23] = test system: corn (Zea mays); assay: Test A preemergence, corn; conditions: 0 to 100 scale, 10 days
Text: as §1, §2

[24] = test system: barnyardgrass (Echinochloa crus-galli); assay: Test B flooded paddy test, barnyardgrass; conditions: 250 g ai/ha, Flood; visually evaluated after 10 to 14 days
Procedure, shortened: as §4

[25] = test system: ragweed (common ragweed, Ambrosia artemisiifolia); assay: Test A postemergence, ragweed; conditions: 10 days
Procedure, shortened: as §3

[26] = test system: oat, wild (wild oat, Avena fatua); assay: Test A preemergence, oat, wild; conditions: 0 to 100 scale, 10 days
Text: as §1, §2

[27] = test system: ryegrass, Italian (Italian ryegrass, Lolium multiflorum); assay: Test A postemergence, ryegrass, Italian; conditions: 10 days
Procedure, shortened: as §3

[28] = test system: rice (Oryza sativa); assay: Test B flooded paddy test, rice; conditions: 250 g ai/ha, Flood; visually evaluated after 10 to 14 days
Procedure, shortened: as §4

[29] = 31 g ai/ha, postemergence, 0 to 100 scale (0 no effect, 100 complete control)
[30] = Postemergence, 125 g ai/ha, 0 to 100 scale

Structure (SMILES): Cc1ccc2cc3ccc(F)cc3c(-c3c(OCOC(=O)N(C)C)c(C)nn(C)c3=O)c2c1 [Compound 16]
- Plant response rating, Pigweed, Palmer [1, 29]: 100
- Plant response rating, Pigweed, Palmer [1, 30]: 60
- Plant response rating, Horseweed [2, 29]: 10
- Plant response rating, Horseweed [2, 30]: 10
- Plant response rating, Corn [3, 29]: 0
- Plant response rating, Corn [3, 30]: 0
- Plant response rating, Blackgrass [4, 29]: 0
- Plant response rating, Blackgrass [4, 30]: 0
- Plant response rating, Ducksalad (0 to 100 scale where 0 is no effect and 100 is complete control) [5]: 0
- Plant response rating, Pigweed, Palmer ([6]; 31 g ai/ha): 10
- Plant response rating, Pigweed, Palmer ([6]; 125 g ai/ha): 0
- Plant response rating, Goosegrass ([7]; 31 g ai/ha): 0
- Plant response rating, Goosegrass ([7]; 125 g ai/ha): 0
- Plant response rating, Oat, Wild [8, 29]: 0
- Plant response rating, Oat, Wild [8, 30]: 0
- Plant response rating, Foxtail, Giant [9, 29]: 0
- Plant response rating, Foxtail, Giant [9, 30]: 20
- Plant response rating, Kochia ([10]; 31 g ai/ha): 0
- Plant response rating, Kochia ([10]; 125 g ai/ha): 0
- Plant response rating, Ryegrass, Italian ([11]; 31 g ai/ha): 0
- Plant response rating, Ryegrass, Italian ([11]; 125 g ai/ha): 0
- Plant response rating, Foxtail, Giant ([12]; 31 g ai/ha): 0
- Plant response rating, Foxtail, Giant ([12]; 125 g ai/ha): 0
- Plant response rating, Galium [13, 29]: 0
- Plant response rating, Galium [13, 30]: 50
- Plant response rating, Kochia [14, 29]: 60
- Plant response rating, Kochia [14, 30]: 80
- Plant response rating, Ragweed ([15]; 31 g ai/ha): 0
- Plant response rating, Ragweed ([15]; 125 g ai/ha): 0
- Plant response rating, Goosegrass [16, 29]: 0
- Plant response rating, Goosegrass [16, 30]: 0
- Plant response rating, Sedge, Umbrella (0 to 100 scale where 0 is no effect and 100 is complete control) [17]: 0
- Plant response rating, Soybean ([18]; 31 g ai/ha): 0
- Plant response rating, Soybean ([18]; 125 g ai/ha): 0
- Plant response rating, Soybean [19, 29]: 10
- Plant response rating, Soybean [19, 30]: 30
- Plant response rating, Wheat [20]: 0
- Plant response rating, Wheat [21, 29]: 0
- Plant response rating, Wheat [21, 30]: 0
- Plant response rating, Blackgrass ([22]; 31 g ai/ha): 0
- Plant response rating, Blackgrass ([22]; 125 g ai/ha): 0
- Plant response rating, Corn ([23]; 31 g ai/ha): 0
- Plant response rating, Corn ([23]; 125 g ai/ha): 0
- Plant response rating, Barnyardgrass (0 to 100 scale where 0 is no effect and 100 is complete control) [24]: 0
- Plant response rating, Ragweed [25, 29]: 10
- Plant response rating, Ragweed [25, 30]: 30
- Plant response rating, Oat, Wild ([26]; 31 g ai/ha): 0
- Plant response rating, Oat, Wild ([26]; 125 g ai/ha): 0
- Plant response rating, Ryegrass, Italian [27, 29]: 0
- Plant response rating, Ryegrass, Italian [27, 30]: 0
- Plant response rating, Rice (0 to 100 scale where 0 is no effect and 100 is complete control) [28]: 0

Structure (SMILES): Cc1ccc2cc3ccc(F)cc3c(-c3c(OCOC(=O)OC(C)C)c(C)nn(C)c3=O)c2c1 [Compound 17]
- Plant response rating, Pigweed, Palmer [1, 29]: 90
- Plant response rating, Pigweed, Palmer [1, 30]: 100
- Plant response rating, Horseweed [2, 29]: 100
- Plant response rating, Horseweed [2, 30]: 100
- Plant response rating, Corn [3, 29]: 0
- Plant response rating, Corn [3, 30]: 30
- Plant response rating, Blackgrass [4, 29]: 0
- Plant response rating, Blackgrass [4, 30]: 10
- Plant response rating, Ducksalad (0 to 100 scale where 0 is no effect and 100 is complete control) [5]: 85
- Plant response rating, Pigweed, Palmer ([6]; 31 g ai/ha): 100
- Plant response rating, Pigweed, Palmer ([6]; 125 g ai/ha): 100
- Plant response rating, Goosegrass ([7]; 31 g ai/ha): 50
- Plant response rating, Goosegrass ([7]; 125 g ai/ha): 60
- Plant response rating, Oat, Wild [8, 29]: 10
- Plant response rating, Oat, Wild [8, 30]: 30
- Plant response rating, Foxtail, Giant [9, 29]: 100
- Plant response rating, Foxtail, Giant [9, 30]: 100
- Plant response rating, Kochia ([10]; 31 g ai/ha): 90
- Plant response rating, Kochia ([10]; 125 g ai/ha): 90
- Plant response rating, Ryegrass, Italian ([11]; 31 g ai/ha): 30
- Plant response rating, Ryegrass, Italian ([11]; 125 g ai/ha): 80
- Plant response rating, Foxtail, Giant ([12]; 31 g ai/ha): 100
- Plant response rating, Foxtail, Giant ([12]; 125 g ai/ha): 100
- Plant response rating, Galium [13, 29]: 100
- Plant response rating, Galium [13, 30]: 100
- Plant response rating, Kochia [14, 29]: 100
- Plant response rating, Kochia [14, 30]: 100
- Plant response rating, Ragweed ([15]; 31 g ai/ha): 100
- Plant response rating, Ragweed ([15]; 125 g ai/ha): 100
- Plant response rating, Goosegrass [16, 29]: 30
- Plant response rating, Goosegrass [16, 30]: 50
- Plant response rating, Sedge, Umbrella (0 to 100 scale where 0 is no effect and 100 is complete control) [17]: 85
- Plant response rating, Soybean ([18]; 31 g ai/ha): 0
- Plant response rating, Soybean ([18]; 125 g ai/ha): 0
- Plant response rating, Soybean [19, 29]: 60
- Plant response rating, Soybean [19, 30]: 80
- Plant response rating, Wheat [20]: 0
- Plant response rating, Wheat [21, 29]: 0
- Plant response rating, Wheat [21, 30]: 0
- Plant response rating, Blackgrass ([22]; 31 g ai/ha): 0
- Plant response rating, Blackgrass ([22]; 125 g ai/ha): 20
- Plant response rating, Corn ([23]; 31 g ai/ha): 0
- Plant response rating, Corn ([23]; 125 g ai/ha): 30
- Plant response rating, Barnyardgrass (0 to 100 scale where 0 is no effect and 100 is complete control) [24]: 70
- Plant response rating, Ragweed [25, 29]: 100
- Plant response rating, Ragweed [25, 30]: 100
- Plant response rating, Oat, Wild ([26]; 31 g ai/ha): 0
- Plant response rating, Oat, Wild ([26]; 125 g ai/ha): 0
- Plant response rating, Ryegrass, Italian [27, 29]: 70
- Plant response rating, Ryegrass, Italian [27, 30]: 100
- Plant response rating, Rice (0 to 100 scale where 0 is no effect and 100 is complete control) [28]: 45

From US12692238B2, “Substituted pyridazinone herbicides” (FMC CORPORATION, priority 2020, dated 2026)
